Source: ChEMBL document CHEMBL2346550, “Synthesis of novel azo compounds containing 5(4H)-oxazolone ring as potent tyrosinase inhibitors” (Bioorg Med Chem, 2013)

Tests used:
[1] = Cytotoxicity against mouse B16F10 cells assessed as cell viability at 20 ug/ml after 72 hrs by micro-culture MTT assay; type: cell-based, B16-F10; conditions: read-out: Activity
[2] = system: B16-F10; experiment: Inhibition of melanin production in mouse B16F10 cells at 20 ug/ml after 72 hrs; type: functional; conditions: B16-F10, 72 h
[3] = biological target: T1, Tyrosinase (Agaricus bisporus, UniProt O42713); experiment: Inhibition of diphenolase activity of mushroom tyrosinase assessed as decrease in L-DOPA chrome formation using L-DOPA as substrate preincubated with enzyme for 10 mins prior to substrate addition measured for 10 mins by spectrophotometric assay
T1 sequence (O42713 whole entry): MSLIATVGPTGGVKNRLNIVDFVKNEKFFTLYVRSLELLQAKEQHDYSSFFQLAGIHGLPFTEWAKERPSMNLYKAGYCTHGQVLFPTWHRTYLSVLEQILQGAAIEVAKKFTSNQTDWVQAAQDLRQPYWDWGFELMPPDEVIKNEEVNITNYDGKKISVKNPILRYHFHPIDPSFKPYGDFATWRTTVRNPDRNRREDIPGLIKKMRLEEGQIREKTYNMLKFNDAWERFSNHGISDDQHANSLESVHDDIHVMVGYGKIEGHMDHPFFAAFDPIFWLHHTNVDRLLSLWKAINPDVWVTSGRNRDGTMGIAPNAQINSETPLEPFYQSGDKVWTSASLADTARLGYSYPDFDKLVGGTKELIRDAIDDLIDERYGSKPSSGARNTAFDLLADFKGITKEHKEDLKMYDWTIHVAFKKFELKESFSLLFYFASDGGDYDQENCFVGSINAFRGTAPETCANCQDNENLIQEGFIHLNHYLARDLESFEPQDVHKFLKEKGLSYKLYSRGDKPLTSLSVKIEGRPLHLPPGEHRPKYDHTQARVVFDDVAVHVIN

CN(C)c1ccc(/N=N/c2ccc(C3=N/C(=C/c4ccc(OC(F)(F)F)cc4)C(=O)O3)cc2)cc1
viability at 72 h, 20 ug/ml [1]: 67.3%
inhibition at 20 µg/mL [2]: 34.3%
IC50 [3]: 1.44 µM

CC(=O)Oc1ccc2ccccc2c1/N=N/c1ccc(C2=N/C(=C/c3ccc(OC(F)(F)F)cc3)C(=O)O2)cc1
viability at 72 h, 20 ug/ml [1]: 68.7%
inhibition at 20 µg/mL [2]: 35.6%
IC50 [3]: 3.04 µM

CC(=O)Oc1c(/N=N/c2ccc(C3=N/C(=C/c4ccc(F)cc4)C(=O)O3)cc2)ccc2ccccc12
viability at 72 h, 20 ug/ml [1]: 72.1%
inhibition at 20 µg/mL [2]: 31.3%
IC50 [3]: 4.33 µM

CN(C)c1ccc(/N=N/c2ccc(C3=N/C(=C/c4ccc(F)cc4)C(=O)O3)cc2)cc1
viability at 72 h, 20 ug/ml [1]: 71.9%
inhibition at 20 µg/mL [2]: 35.7%
IC50 [3]: 2.01 µM

CC(=O)Oc1c(/N=N/c2ccc(C3=N/C(=C/c4ccc(OC(F)(F)F)cc4)C(=O)O3)cc2)ccc2ccccc12
viability at 72 h, 20 ug/ml [1]: 73.5%
inhibition at 20 µg/mL [2]: 33.4%
IC50 [3]: 3.98 µM

CC(=O)Oc1ccc2ccccc2c1/N=N/c1ccc(C2=N/C(=C/c3ccc(F)cc3)C(=O)O2)cc1
viability at 72 h, 20 ug/ml [1]: 66.7%
inhibition at 20 µg/mL [2]: 32.5%
IC50 [3]: 3.91 µM
